Our source for the IC50, inhibition and t1/2 values is ChEMBL document CHEMBL4828703, “Structure-activity relationship study of THZ531 derivatives enables the discovery of BSJ-01-175 as a dual CDK12/13 covalent inhibitor with efficacy in Ewing sarcoma” (Eur J Med Chem, 2021).

Series [1] addresses Cyclin-dependent kinase 13/Cyclin-K (Homo sapiens, UniProt Q14004). In words: Inhibition of human recombinant CDK13/CyclinK assessed as reduction in substrate phosphorylation using His-c-Myc as substrate preincubated with enzyme for 5 mins followed by substrate addition for 15 mins in presence of [gamma 32P-ATP] by radioactive kinase assay. The format is protein-complex assay.

The target of series [2] is CDK12/Cyclin K (Homo sapiens, UniProt Q9NYV4). In words: Inhibition of human recombinant CDK12/CyclinK assessed as reduction in substrate phosphorylation using His-c-Myc as substrate preincubated with enzyme for 5 mins followed by substrate addition for 15 mins in presence of [gamma 32P-ATP] by radioactive kinase assay. It is filed as protein-complex assay.
Sequence of CDK12/Cyclin K (O75909 whole entry): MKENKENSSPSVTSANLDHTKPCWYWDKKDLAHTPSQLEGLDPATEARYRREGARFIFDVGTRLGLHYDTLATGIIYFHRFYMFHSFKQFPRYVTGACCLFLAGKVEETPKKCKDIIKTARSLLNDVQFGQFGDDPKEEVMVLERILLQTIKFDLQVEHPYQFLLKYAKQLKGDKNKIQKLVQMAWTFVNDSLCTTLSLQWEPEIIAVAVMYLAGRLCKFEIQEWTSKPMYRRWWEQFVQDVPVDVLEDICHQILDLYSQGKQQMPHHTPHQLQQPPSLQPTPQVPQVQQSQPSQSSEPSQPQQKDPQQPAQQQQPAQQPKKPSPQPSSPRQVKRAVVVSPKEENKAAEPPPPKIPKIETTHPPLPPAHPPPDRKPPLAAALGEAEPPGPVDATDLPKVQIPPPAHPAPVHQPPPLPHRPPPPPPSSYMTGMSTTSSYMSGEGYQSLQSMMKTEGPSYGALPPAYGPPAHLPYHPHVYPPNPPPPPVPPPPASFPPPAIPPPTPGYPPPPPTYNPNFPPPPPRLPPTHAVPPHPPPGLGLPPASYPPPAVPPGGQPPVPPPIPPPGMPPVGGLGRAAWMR
Sequence of CDK12/Cyclin K (Q9NYV4 whole entry): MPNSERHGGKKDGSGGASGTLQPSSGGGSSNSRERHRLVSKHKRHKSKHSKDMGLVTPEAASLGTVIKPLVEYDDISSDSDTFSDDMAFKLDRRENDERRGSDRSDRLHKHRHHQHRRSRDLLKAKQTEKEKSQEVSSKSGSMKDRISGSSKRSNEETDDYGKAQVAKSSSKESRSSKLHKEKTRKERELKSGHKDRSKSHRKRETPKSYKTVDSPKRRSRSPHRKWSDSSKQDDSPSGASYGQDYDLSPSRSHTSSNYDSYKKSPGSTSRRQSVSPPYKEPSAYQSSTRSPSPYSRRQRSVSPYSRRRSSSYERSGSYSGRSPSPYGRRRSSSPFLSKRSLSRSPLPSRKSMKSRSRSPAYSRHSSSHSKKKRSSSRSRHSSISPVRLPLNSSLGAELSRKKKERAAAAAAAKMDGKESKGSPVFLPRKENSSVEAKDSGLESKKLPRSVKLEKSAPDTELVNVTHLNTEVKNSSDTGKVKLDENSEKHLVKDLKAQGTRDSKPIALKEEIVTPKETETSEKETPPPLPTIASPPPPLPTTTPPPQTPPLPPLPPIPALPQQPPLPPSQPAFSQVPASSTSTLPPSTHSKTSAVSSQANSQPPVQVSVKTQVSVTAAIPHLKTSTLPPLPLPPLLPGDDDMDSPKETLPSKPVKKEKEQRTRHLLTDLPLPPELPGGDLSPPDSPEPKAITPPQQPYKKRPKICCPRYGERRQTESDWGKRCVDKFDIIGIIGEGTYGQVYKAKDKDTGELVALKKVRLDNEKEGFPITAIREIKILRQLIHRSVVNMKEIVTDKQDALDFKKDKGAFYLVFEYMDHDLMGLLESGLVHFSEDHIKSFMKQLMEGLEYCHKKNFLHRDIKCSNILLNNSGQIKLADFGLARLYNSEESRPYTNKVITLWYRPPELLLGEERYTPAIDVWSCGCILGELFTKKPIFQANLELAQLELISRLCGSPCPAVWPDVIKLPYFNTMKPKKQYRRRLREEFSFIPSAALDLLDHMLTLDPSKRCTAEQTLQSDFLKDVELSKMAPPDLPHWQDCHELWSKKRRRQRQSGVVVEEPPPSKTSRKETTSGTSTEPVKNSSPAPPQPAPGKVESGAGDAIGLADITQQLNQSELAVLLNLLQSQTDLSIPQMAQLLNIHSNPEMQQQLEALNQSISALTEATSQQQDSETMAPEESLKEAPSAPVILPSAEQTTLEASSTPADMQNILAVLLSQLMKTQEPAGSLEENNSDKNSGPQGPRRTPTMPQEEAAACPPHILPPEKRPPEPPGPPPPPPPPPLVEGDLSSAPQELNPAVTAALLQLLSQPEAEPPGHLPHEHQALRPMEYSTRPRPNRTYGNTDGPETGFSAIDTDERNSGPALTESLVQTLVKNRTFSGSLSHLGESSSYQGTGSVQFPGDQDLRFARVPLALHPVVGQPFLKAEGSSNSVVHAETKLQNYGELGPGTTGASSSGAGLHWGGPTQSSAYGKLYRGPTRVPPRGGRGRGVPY
In series [3] the target is Cyclin-dependent kinase 7/ cyclin H (Homo sapiens, UniProt P50613). In words: Inhibition of CDK7/Cyclin H (unknown origin). It is filed as protein-complex assay.
Sequence of Cyclin-dependent kinase 7/ cyclin H (P51946 whole entry): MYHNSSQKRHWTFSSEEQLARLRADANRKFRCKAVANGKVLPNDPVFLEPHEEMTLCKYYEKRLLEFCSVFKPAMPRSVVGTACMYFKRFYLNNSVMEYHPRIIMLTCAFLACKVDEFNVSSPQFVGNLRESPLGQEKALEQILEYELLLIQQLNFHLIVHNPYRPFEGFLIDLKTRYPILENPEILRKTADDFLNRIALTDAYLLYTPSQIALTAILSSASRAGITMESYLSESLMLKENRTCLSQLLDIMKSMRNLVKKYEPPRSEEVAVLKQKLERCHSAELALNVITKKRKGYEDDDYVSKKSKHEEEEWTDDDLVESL
Sequence of Cyclin-dependent kinase 7/ cyclin H (P50613 whole entry): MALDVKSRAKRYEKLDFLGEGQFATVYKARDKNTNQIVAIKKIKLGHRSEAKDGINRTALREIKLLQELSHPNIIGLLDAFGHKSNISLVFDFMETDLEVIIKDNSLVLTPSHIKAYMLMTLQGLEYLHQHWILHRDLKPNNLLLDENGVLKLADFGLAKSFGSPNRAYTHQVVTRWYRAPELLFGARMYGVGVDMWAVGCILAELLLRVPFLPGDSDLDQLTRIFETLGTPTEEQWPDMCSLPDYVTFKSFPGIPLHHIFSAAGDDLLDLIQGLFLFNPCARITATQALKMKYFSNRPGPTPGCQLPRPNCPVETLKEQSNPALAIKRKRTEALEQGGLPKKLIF
For series [4], the target named is CDK2/Cyclin A2 (Homo sapiens, UniProt P24941). In words: Inhibition of CDK2/Cyclin A (unknown origin). The format is protein-complex assay.
The target of series [5] is CDK9/cyclin T1 (Homo sapiens, UniProt P50750). In words: Inhibition of CDK9/Cyclin T1 (unknown origin). The format is protein-complex assay.
Series [6] is described as follows: Antiproliferative activity against human TC71 cells assessed as reduction in cell viability. The format is functional, cell-based. Particulars: TC-71.
A short description of series [7]: Antiproliferative activity against human Kelly cells harboring CDK12 C1039F mutant assessed as reduction in cell viability incubated for 72 hrs by CellTiter-Glo assay. It is filed as functional, cell-based.
A short description of series [8]: Downregulation of RNA polymerase 2 CTD phosphorylation at Ser7 residue in human Jurkat cells at 1 uM incubated for 6 hrs by immunoblotting analysis. It is filed as functional.
Series [9] in a line: Antiproliferative activity against human Kelly cells harboring wild type CDK12 assessed as reduction in cell viability incubated for 72 hrs by CelTiter-Glo assay. The format is functional, cell-based.
Series [10] can be described thus: Downregulation of RNA polymerase 2 in human Jurkat cells at 1 uM measured after 6 hrs by immunoblotting analysis. It is filed as functional. (A western blot detects proteins with antibodies after separation by electrophoresis.)
A short description of series [11]: Downregulation of RNA polymerase 2 CTD phosphorylation at Ser5 residue in human Jurkat cells at 1 uM incubated for 6 hrs by immunoblotting analysis. The format is functional.
The target of series [12] is Cyclin-dependent kinase 12/13 (Homo sapiens) (UniProt Q14004+Q9NYV4). In words: Inhibition of CDK12/13 in human jurkat cells assessed as reduction in RNA polymerase 2 CTD phosphorylation at Ser2 residue at 1 uM measured after 6 hrs by immunoblotting analysis. It is filed as cell-based.
In series [13] the target is Cyclin-dependent kinase 7 (Homo sapiens) (UniProt P50613). In words: Inhibition of THZ1-biotin binding from CDK7 in human Jurkat cells at 1 uM incubated for 6 hrs by CyclinH antibody based competitive pull down assay. It is filed as cell-based.
Sequence of Cyclin-dependent kinase 7 (Homo sapiens) (P50613 whole entry): as above
The nature of series [14]: Metabolic stability in mouse liver microsomes assessed as half life. The format is ADME, Microsome.

Calls of active or inactive are those of the source. The rule behind the calls is not given here.

Sequence of Cyclin-dependent kinase 13/Cyclin-K (Q14004 whole entry): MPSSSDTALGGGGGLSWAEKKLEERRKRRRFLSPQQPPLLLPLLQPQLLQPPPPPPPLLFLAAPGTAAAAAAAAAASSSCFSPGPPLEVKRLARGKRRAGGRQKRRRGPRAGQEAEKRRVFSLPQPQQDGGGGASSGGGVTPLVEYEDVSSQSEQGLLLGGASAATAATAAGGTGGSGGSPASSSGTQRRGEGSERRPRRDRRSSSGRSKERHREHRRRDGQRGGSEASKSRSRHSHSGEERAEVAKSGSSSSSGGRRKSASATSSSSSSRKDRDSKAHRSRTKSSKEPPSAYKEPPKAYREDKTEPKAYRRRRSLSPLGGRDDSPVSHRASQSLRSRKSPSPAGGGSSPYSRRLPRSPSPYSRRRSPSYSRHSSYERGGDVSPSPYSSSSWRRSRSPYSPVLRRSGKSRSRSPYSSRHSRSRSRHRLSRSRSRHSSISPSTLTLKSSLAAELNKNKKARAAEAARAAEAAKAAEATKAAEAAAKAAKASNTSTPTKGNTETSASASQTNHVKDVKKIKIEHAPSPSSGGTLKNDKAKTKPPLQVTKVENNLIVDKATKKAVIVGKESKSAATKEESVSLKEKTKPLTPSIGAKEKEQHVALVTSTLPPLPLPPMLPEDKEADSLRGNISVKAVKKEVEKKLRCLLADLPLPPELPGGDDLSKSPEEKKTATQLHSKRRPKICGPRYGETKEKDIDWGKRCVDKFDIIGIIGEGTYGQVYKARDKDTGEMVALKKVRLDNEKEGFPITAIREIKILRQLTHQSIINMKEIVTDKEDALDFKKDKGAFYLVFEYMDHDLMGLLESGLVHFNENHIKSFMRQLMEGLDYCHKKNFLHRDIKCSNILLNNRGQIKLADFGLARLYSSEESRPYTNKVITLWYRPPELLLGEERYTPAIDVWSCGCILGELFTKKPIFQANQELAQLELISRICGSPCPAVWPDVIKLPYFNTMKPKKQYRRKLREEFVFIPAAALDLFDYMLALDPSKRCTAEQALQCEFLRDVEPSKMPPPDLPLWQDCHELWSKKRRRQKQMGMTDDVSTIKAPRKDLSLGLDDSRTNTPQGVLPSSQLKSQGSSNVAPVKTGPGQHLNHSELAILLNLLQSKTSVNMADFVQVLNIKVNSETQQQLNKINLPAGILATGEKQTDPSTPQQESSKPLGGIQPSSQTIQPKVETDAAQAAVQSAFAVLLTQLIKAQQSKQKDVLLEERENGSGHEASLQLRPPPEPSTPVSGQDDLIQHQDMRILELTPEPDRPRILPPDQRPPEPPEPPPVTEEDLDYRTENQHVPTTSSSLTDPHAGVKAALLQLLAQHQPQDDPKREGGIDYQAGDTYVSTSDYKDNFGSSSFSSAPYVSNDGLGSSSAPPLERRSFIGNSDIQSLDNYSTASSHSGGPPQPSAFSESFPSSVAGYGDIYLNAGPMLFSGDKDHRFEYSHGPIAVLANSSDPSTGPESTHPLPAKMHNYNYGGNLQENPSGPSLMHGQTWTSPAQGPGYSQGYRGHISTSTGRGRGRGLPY
Sequence of Cyclin-dependent kinase 13/Cyclin-K (O75909 whole entry, further chain): as the sequence (O75909 whole entry) above

As for `CN(C)C/C=C/C(=O)Nc1ccc(O[C@@H]2CCC[C@@H](Nc3ncc(Cl)c(-c4c[nH]c5ccccc45)n3)C2)c(F)c1`, the IC50 was 484 nM in series [1] and 857 nM in [2].
Regarding `CN(C)C/C=C/C(=O)Nc1ccc(C(=O)N2CCC[C@@H](Nc3ncc(Cl)c(-c4c[nH]c5ccccc45)n3)C2)nc1`, the concentration for half-maximal inhibition (IC50) in series [1] was 1640 nM; in series [2], 765 nM.
`CN(C)C/C=C/C(=O)Nc1ccc(N2CCC[C@@H](Nc3ncc(Cl)c(-c4c[nH]c5ccccc45)n3)C2)cc1`: the IC50 amounted to 69.5 nM in [3]; 178 nM in [1]; 623 nM in [4]; 167 nM in series [2]; 155 nM in series [5].
Taken in the same sequence, the figures for `CN(C)C/C=C/C(=O)Nc1ccc(C(=O)N2CCC[C@@H](Nc3ncc(C4CC4)c(-c4c[nH]c5ccccc45)n3)C2)cc1` were 625 nM, more than 10000 nM, more than 10000 nM, 9980 nM and more than 10000 nM.
Turning to `CN(C)C/C=C/C(=O)Nc1ccc(C(=O)N2CCCC[C@@H](Nc3ncc(Cl)c(-c4c[nH]c5ccccc45)n3)C2)cc1`, the concentration for half-maximal inhibition (IC50) in series [3] is 388 nM; in series [1], 1830 nM; in series [4], 339 nM; in [2], 1450 nM; in series [5], 1220 nM.
For `CN(C)C/C=C/C(=O)Nc1ccc(C(=O)N2CCC[C@@H](Nc3ncc(Br)c(-c4c[nH]c5ccccc45)n3)C2)cc1`, the IC50 worked out at 115 nM in [3]; 573 nM in series [1]; 1000 nM in series [4]; 226 nM in [2]; 184 nM in series [5].
As for `CN(C)C/C=C/C(=O)Nc1ccc(C(=O)N2CCC[C@@H](Nc3ncc(C(F)(F)F)c(-c4c[nH]c5ccccc45)n3)C2)cc1`, the IC50 in series [3] is more than 10000 nM; in series [1] it was 10000 nM; in series [4], 10000 nM; in series [2], more than 10000 nM; in [5], more than 10000 nM.
Regarding `CN(C)C/C=C/C(=O)Nc1ccc(N2CCC[C@@H](Nc3ncc(Cl)c(-c4c[nH]c5ccccc45)n3)C2)nc1`, the results for the concentration for half-maximal inhibition (IC50) in series [1] and in [2] were 186 nM and 35.4 nM, respectively.
As to `CN(C)C/C=C/C(=O)Nc1ccc(C(=O)N2CC[C@@H](Nc3ncc(Cl)c(-c4c[nH]c5ccccc45)n3)C2)cc1`, the IC50 stood at 50.2 nM in series [1], 49.3 nM in series [4], 68.7 nM in [2] and 14.2 nM in series [5].
Regarding `CN(C)C/C=C/C(=O)Nc1ccc(C(=O)N2CCC[C@@H](Nc3ncc(Cl)c(-c4c[nH]c5ccccc45)n3)C2)cc1`, the IC50 in series [6] amounted to 65.9 nM; in series [7], 254 nM; in series [9], 93 nM; in series [1] it was 657 nM; in [4], 1300 nM; in series [2] it was 483 nM. Further, the midpoint of inhibition in series [5], the IC50, lay at 193 nM. The inhibition at 1 µM in [8] was 42%; in [10], 0%; in series [11], 0%. Also, in series [12], the inhibition is 76%. Also, the inhibition entry in [13] is “Active”.
Take `Nc1ccc(OC2CCC[C@@H](Nc3ncc(Cl)c(-c4cn(S(=O)(=O)c5ccccc5)c5ccccc45)n3)C2)cc1` (stereo partly specified): the t1/2 in series [14] worked out at 5.4 min.
On to `C=CC(=O)Nc1ccc(C(=O)N2CCC[C@@H](Nc3ncc(Cl)c(-c4c[nH]c5ccccc45)n3)C2)nc1`, for which the IC50 in series [1] was 799 nM; in [2], 232 nM. Further, in series [14], the t1/2 turned out to be 3.5 min.
Turning to `CN(C)C/C=C/C(=O)Nc1ccc(O[C@H]2CCC[C@@H](Nc3ncc(Cl)c(-c4c[nH]c5ccccc45)n3)C2)cc1`, the half-maximal inhibitory concentration (IC50) in series [3] is 112 nM; in [1], 182 nM; in series [4], 650 nM; in [2], 181 nM; in series [5], 132 nM.

In general, IC50 refers to the point on the concentration scale where inhibition reaches its midpoint. By inhibition is commonly meant the change of the read-out against control, counted positive when it falls.
